Measured values as given in patent US5061689A, “Zinc bacitracin containing wound dressing” (Bioderm, Inc., priority 1986, dated 1991).

System: partial thickness wounds
Assay: Topically applied bacitracin zinc 3% to 9%, healing of partial thickness wounds (Example III)
Type: in vivo, white Yorkshire pigs
Description: To test the effect of bacitracin zinc on epidermal resurfacing, approximately 60 rectangular wounds measuring 7 mm wide, 10 mm long, and 0.5 mm deep were made in each of eighteen white Yorkshire pigs in the paravertebral and thoracic areas with a Castroviejo keratome. The electrokeratome was fitted with a razor blade modified so that the cutting edge was reduced to 7 mm. The wounds were separated from one another by at least 15 mm of normal skin. The bacitracin zinc was applied in impregnated foam shortly (within 5 minutes) after wounding on day 0 and once daily thereafter for 7 days. In order to rule out the possibility that wounds made in different anatomical regions heal at different rates the regions used for each treatment group varied for each animal. Two days after wounding and each day thereafter some of the wounds with surrounding normal skin were excised from each treatment group. The excisions were made with a Castroviejo keratome fitted with a 22 mm blade, set to cut at a depth of 0.7 mm. After incubating the specimens in 2N sodium bromide at 37° C. for three hours, the epidermis was separated from the dermis and the epidermal sheet (22 sq mm) was assessed for re-epithelialization as previously described. Briefly, this method is a macroscopic examination of the separated epidermis for defects. Defects are visualized as holes in the separated epidermal sheet or as a lack of epidermal continuum in the area that contain the wound. The wound is considered re-epithelialized if there are no defects in the epidermis and not re-epithelialized if there are one or more defects. To more accurately assess the effective range of bacitracin concentrations,bacitracin zinc containing ointments were prepared with concentrations ranging from 3% to 9%. The methodology employed was substantially the same as in Example I.

bacitracin zinc
% of wounds healed (3.0% bacitracin zinc, day 2 after wounding): 0% | % of wounds healed (3.0% bacitracin zinc, day 3 after wounding): 0% | % of wounds healed (3.0% bacitracin zinc, day 4 after wounding): 33% | % of wounds healed (3.0% bacitracin zinc, day 5 after wounding): 55% | % of wounds healed (3.0% bacitracin zinc, day 6 after wounding): 90% | % of wounds healed (3.0% bacitracin zinc, day 7 after wounding): 100% | % of wounds healed (4.0% bacitracin zinc, day 2 after wounding): 0% | % of wounds healed (4.0% bacitracin zinc, day 3 after wounding): 5% | % of wounds healed (4.0% bacitracin zinc, day 4 after wounding): 45% | % of wounds healed (4.0% bacitracin zinc, day 5 after wounding): 60% | % of wounds healed (4.0% bacitracin zinc, day 6 after wounding): 96% | % of wounds healed (4.0% bacitracin zinc, day 7 after wounding): 100% | % of wounds healed (5.0% bacitracin zinc, day 2 after wounding): 0% | % of wounds healed (5.0% bacitracin zinc, day 3 after wounding): 9% | % of wounds healed (5.0% bacitracin zinc, day 4 after wounding): 48% | % of wounds healed (5.0% bacitracin zinc, day 5 after wounding): 71% | % of wounds healed (5.0% bacitracin zinc, day 6 after wounding): 95% | % of wounds healed (5.0% bacitracin zinc, day 7 after wounding): 100% | % of wounds healed (5.5% bacitracin zinc, day 2 after wounding): 0% | % of wounds healed (5.5% bacitracin zinc, day 3 after wounding): 15% | % of wounds healed (5.5% bacitracin zinc, day 4 after wounding): 55% | % of wounds healed (5.5% bacitracin zinc, day 5 after wounding): 75% | % of wounds healed (5.5% bacitracin zinc, day 6 after wounding): 98% | % of wounds healed (5.5% bacitracin zinc, day 7 after wounding): 100% | % of wounds healed (6.0% bacitracin zinc, day 2 after wounding): 0% | % of wounds healed (6.0% bacitracin zinc, day 3 after wounding): 20% | % of wounds healed (6.0% bacitracin zinc, day 4 after wounding): 59% | % of wounds healed (6.0% bacitracin zinc, day 5 after wounding): 78% | % of wounds healed (6.0% bacitracin zinc, day 6 after wounding): 98% | % of wounds healed (6.0% bacitracin zinc, day 7 after wounding): 100% | % of wounds healed (6.5% bacitracin zinc, day 2 after wounding): 0% | % of wounds healed (6.5% bacitracin zinc, day 3 after wounding): 33% | % of wounds healed (6.5% bacitracin zinc, day 4 after wounding): 65% | % of wounds healed (6.5% bacitracin zinc, day 5 after wounding): 88% | % of wounds healed (6.5% bacitracin zinc, day 6 after wounding): 100% | % of wounds healed (6.5% bacitracin zinc, day 7 after wounding): 100% | % of wounds healed (7.0% bacitracin zinc, day 2 after wounding): 0% | % of wounds healed (7.0% bacitracin zinc, day 3 after wounding): 40% | % of wounds healed (7.0% bacitracin zinc, day 4 after wounding): 70% | % of wounds healed (7.0% bacitracin zinc, day 5 after wounding): 96% | % of wounds healed (7.0% bacitracin zinc, day 6 after wounding): 100% | % of wounds healed (7.0% bacitracin zinc, day 7 after wounding): 100% | % of wounds healed (7.5% bacitracin zinc, day 2 after wounding): 0% | % of wounds healed (7.5% bacitracin zinc, day 3 after wounding): 38% | % of wounds healed (7.5% bacitracin zinc, day 4 after wounding): 68% | % of wounds healed (7.5% bacitracin zinc, day 5 after wounding): 92% | % of wounds healed (7.5% bacitracin zinc, day 6 after wounding): 98% | % of wounds healed (7.5% bacitracin zinc, day 7 after wounding): 100% | % of wounds healed (8.0% bacitracin zinc, day 2 after wounding): 0% | % of wounds healed (8.0% bacitracin zinc, day 3 after wounding): 12% | % of wounds healed (8.0% bacitracin zinc, day 4 after wounding): 59% | % of wounds healed (8.0% bacitracin zinc, day 5 after wounding): 75% | % of wounds healed (8.0% bacitracin zinc, day 6 after wounding): 90% | % of wounds healed (8.0% bacitracin zinc, day 7 after wounding): 100% | % of wounds healed (9.0% bacitracin zinc, day 2 after wounding): 0% | % of wounds healed (9.0% bacitracin zinc, day 3 after wounding): 4% | % of wounds healed (9.0% bacitracin zinc, day 4 after wounding): 33% | % of wounds healed (9.0% bacitracin zinc, day 5 after wounding): 66% | % of wounds healed (9.0% bacitracin zinc, day 6 after wounding): 90% | % of wounds healed (9.0% bacitracin zinc, day 7 after wounding): 100% | promoting epidermal resurfacing (applied in an ointment base at concentrations of about 5% to 8%): effective agent for promoting epidermal resurfacing | enhancement of healing (concentration of 4%): some enhancement of healing is observed | enhancement of healing (higher concentrations, particularly in the range of 6.5%-7.5%): Preferred healing is observed
